Consider one substance from patent US11884706B2, “Immunomodulating peptide derived from concave-eared torrent frog and use thereof” (priority 2019, dated 2024).

One experiment deals with Smad (Smad2, Smad3). The experiment in a line: Activation of TGF-β/Smad signaling in BMDMs. Type of experiment: cell-based, mouse. As to the method:
Mouse bone marrow-derived macrophages (BMDMs) were inoculated into a 6-well plate and cultured without serum for 16 h. For the detection of MAPKs and NF-κB, BMDMs were incubated with different concentrations of Ot-WHP (0, 25, 50, 100 μg/mL) for 30 min. For the detection of TGF-β/Smad signaling pathway, BMDMs were incubated with different concentrations of Ot-WHP (0, 25, 50, 100 μg/mL) for 24 h, or BMDMs were incubated with 100 μg/mL Ot-WHP, with or without TGF-β1 antibody.

The subject of experiment [1] is fibroblasts. The experiment in a line: Collagen in fibroblast supernatant by ELISA, direct. Format: cell-based, mouse. Conditions: fibroblasts alone. As to the method:
Keratinocytes HaCat and mouse fibroblasts (5×10^3 cells/well, 100 μL/well) were inoculated into a 96-well plate, and incubated with different concentrations of Ot-WHP (25, 50, and 100 μg/mL). PBS was used as a control. After HaCat was incubated with Ot-WHP for 24 h, and the fibroblasts were incubated with Ot-WHP for 72 h, 10 μl of Cell Counting Kit-8 (CCK-8) solution was added to each well, and incubated for another 2-4 h at 37° C. The absorbency at 450 nm was detected on a microplate reader.
(§1) The method was the same as that in Example 8. The fibroblasts treated in Example 8 were lysed with RIPA cell lysis solution. The protein was extracted, and the expression of α-SMA was detected by Western blot. A higher expression level of α-SMA means a higher transformation of fibroblasts into […]. The supernatant of the fibroblasts treated in Example 8 was collected, and the production of collagen in the supernatant was quantitatively detected with an ELISA kit.

The subject of experiment [2] is fibroblasts. The experiment in a line: Collagen in fibroblast supernatant by ELISA, co-incubation with macrophages. Conditions: fibroblasts co-incubated with macrophages. Type of experiment: cell-based, mouse. As to the method:
(§2) HaCat was co-incubated with THP-1 derived macrophages, and mouse fibroblasts were co-incubated with mouse macrophages BMDMs. HaCat (1×10^5 cells/well) or mouse fibroblasts (1×10^5 cells/well) were inoculated into a 24-well plate (lower chamber) one day in advance. After adherence, corresponding macrophages (1×10^5 cells/well, 100 μL) and different concentrations of Ot-WHP (25, 50, 100 μg/mL) or Vehicle (PBS, control) were added to the co-incubation chamber (upper chamber). After HaCat was co-incubated with THP-1-derived macrophages for 24 h, and the fibroblasts were co-incubated with mouse macrophages BMDMs for 72 h, the co-incubated upper chamber was discarded, and the cell activity in the lower chamber was detected by CCK-8.
as §1

A further experiment has as its system HaCat. The experiment in a line: Keratinocyte proliferation, co-incubation with THP-1 derived macrophages (CCK-8). Type of experiment: cell-based. Conditions: HaCat with THP-1 derived macrophages, 25, 50, 100 μg/mL, 24 h. As to the method:
as §2

Regarding “Ot-WHP: immunomodulating peptide of 24 amino acids from concave-eared torrent frog skin, sequence ATAWDLGPHGIRPLRPIRIRPLCG (SEQ ID NO:1); natural (purified) or chemically synthesized (Ot-WHP Peptide; listed as Odorrana tormota)”, the “activation of Smad (Smad2, Smad3) signaling pathway” value with Smad (Smad2, Smad3) (BMDMs, 0, 25, 50, 100 μg/mL, 24 h) is listed as “activates”. Besides, in the experiment with Smad (Smad2, Smad3) (BMDMs, 100 μg/mL, with or without TGF-β1 antibody), the “dependence of Smad activation on TGF-β” value was “dependent on the production of TGF-β induced by Ot-WHP”. The “collagen production by fibroblasts, direct” value in the experiment with fibroblasts [1] is listed as “no direct effect on the collagen production by fibroblasts”. The “collagen production by fibroblasts with coexisting macrophages” value with fibroblasts [2] is listed as “promote the collagen production by fibroblasts”. Besides, the “proliferation of keratinocytes when macrophages coexist” value in the experiment with HaCat is on record as “can promote the proliferation”.
